Results: patent US9976141B2, “Compositions and methods for inhibiting gene expression of Hif2alpha” (Arrowhead Madison Inc., priority 2015, dated 2018)
Strand notation (5' to 3'): a small letter for the sugar, then the base; units joined by * are phosphorothioate-linked, units joined directly phosphodiester-linked; [ ] holds rarer units or linkages, { } end groups; capitals alone tell only the bases. d = 2'-deoxy (DNA); m = 2'-O-methyl; f = 2'-fluoro

System: human EPAS1 (Hif2α) cDNA in psiCHECK2 (Renilla luciferase/EPAS1 fusion mRNA) in Hep3B cells
Assay: Efficacy screen of Hif2α RNAi triggers in vitro, dual-luciferase reporter assay (1 nM and 0.1 nM)
Format: cell-based
Details: Hep3B cells co-transfected with EPAS1-psiCHECK2, Renilla luciferase normalized to firefly luciferase
Method in brief: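 Hep3B cells (10,000/well) co-transfected with chemically modified siRNA triggers at 1 nM and 0.1 nM plus 25 ng EPAS1-psiCHECK2 plasmid via LipoFectamine 2000. Knockdown measured as Renilla luciferase from the EPAS1 fusion mRNA, normalized to constitutive firefly luciferase by dual-luciferase assay.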

| Substance | Relative Rluc-Hif2α (0.1 nM RNAi trigger) | Relative Rluc-Hif2α (1 nM RNAi trigger) |
| --- | --- | --- |
| 2347 (sense fUmUfAmUfAmUfCmUfGmGfGmUfUmAfAmGfUmGfAdT; antisense dTfCmAfCmUfUmAfAmCfCmCfAmGfAmUfAmUfAmAdT*dT; siRNA) [compound 2347] | 0.753 ± 0.092 | 0.530 ± 0.040 |
| 2348 (sense fCmCfAmCfGmGfCmCfUmGfUmAfCmGfGmAfCmAfAdT; antisense dTfUmGfUmCfCmGfUmAfCmAfGmGfCmCfGmUfGmGdT*dT; siRNA) [compound 2348] | 0.840 ± 0.270 | 0.454 ± 0.096 |
| 2349 (sense fAmCfGmGfCmCfUmGfUmAfCmGfGmAfCmAfCmUfAdT; antisense dTfAmGfUmGfUmCfCmGfUmAfCmAfGmGfCmCfGmUdT*dT; siRNA) [compound 2349] | 0.674 ± 0.172 | 0.504 ± 0.062 |
| 2350 (sense fUmGfUmCfGmGfCmUfUmUfUmUfGmCfCmAfUmCfAdT; antisense dTfGmAfUmGfGmCfAmAfAmAfAmGfCmCfGmAfCmAdT*dT; siRNA) [compound 2350] | 0.755 ± 0.085 | 0.678 ± 0.105 |
| 2351 (sense fGmUfCmGfGmCfUmUfUmUfUmGfCmCfAmUfCmUfAdT; antisense dTfAmGfAmUfGmGfCmAfAmAfAmAfGmCfCmGfAmCdT*dT; siRNA) [compound 2351] | 1.216 ± 0.415 | 1.306 ± 0.216 |
| 2352 (sense fAmUfCmUfGmUfGmAfUmAfUmGfCmCfAmUfAmGfAdT; antisense dTfCmUfAmUfGmGfCmAfUmAfUmCfAmCfAmGfAmUdT*dT; siRNA) [compound 2352] | 1.012 ± 0.048 | 0.749 ± 0.049 |
| 2353 (sense fUmGfCmCfAmUfAmGfGmUfGmUfGmAfCmAfAmUfAdT; antisense dTfAmUfUmGfUmCfAmCfAmCfCmUfAmUfGmGfCmAdT*dT; siRNA) [compound 2353] | 0.635 ± 0.156 | 0.324 ± 0.075 |
| 2354 (sense fCmCfAmUfAmGfGmUfGmUfGmAfCmAfAmUfCmCfAdT; antisense dTfGmGfAmUfUmGfUmCfAmCfAmCfCmUfAmUfGmGdT*dT; siRNA) [compound 2354] | 1.043 ± 0.239 | 0.741 ± 0.189 |
| 2355 (sense fCmAfUmAfGmGfUmGfUmGfAmCfAmAfUmCfCmGfAdT; antisense dTfCmGfGmAfUmUfGmUfCmAfCmAfCmCfUmAfUmGdT*dT; siRNA) [compound 2355] | 0.457 ± 0.066 | 0.248 ± 0.063 |
| 2356 (sense fAmUfAmGfGmUfGmUfGmAfCmAfAmUfCmCfGmAfAdT; antisense dTfUmCfGmGfAmUfUmGfUmCfAmCfAmCfCmUfAmUdT*dT; siRNA) [compound 2356] | 0.574 ± 0.006 | 0.210 ± 0.023 |
| 2357 (sense fGmGfUmGfUmGfAmCfAmAfUmCfCmGfAmGfCmAfAdT; antisense dTfUmGfCmUfCmGfGmAfUmUfGmUfCmAfCmAfCmCdT*dT; siRNA) [compound 2357] | 0.737 ± 0.082 | 0.435 ± 0.062 |
| 2358 (sense fAmCfAmAfUmCfCmGfAmGfCmAfGmUfGmGfAmGfAdT; antisense dTfCmUfCmCfAmCfUmGfCmUfCmGfGmAfUmUfGmUdT*dT; siRNA) [compound 2358] | 0.647 ± 0.113 | 0.731 ± 0.123 |
| 2359 (sense fCmCfGmAfGmCfAmGfUmGfGmAfGmUfCmAfUmUfAdT; antisense dTfAmAfUmGfAmCfUmCfCmAfCmUfGmCfUmCfGmGdT*dT; siRNA) [compound 2359] | 0.576 ± 0.208 | 0.354 ± 0.022 |
| 2360 (sense fGmGfGmAfGmCfAmCfUmGfCmGfCmGfCmUfAmUfAdT; antisense dTfAmUfAmGfCmGfCmGfCmAfGmUfGmCfUmCfCmCdT*dT; siRNA) [compound 2360] | 1.102 ± 0.119 | 0.962 ± 0.167 |
| 2361 (sense fGmGfAmGfCmAfCmUfGmCfGmCfGmCfUmAfUmCfAdT; antisense dTfGmAfUmAfGmCfGmCfGmCfAmGfUmGfCmUfCmCdT*dT; siRNA) [compound 2361] | 0.800 ± 0.198 | 0.603 ± 0.133 |
| 2362 (sense fAmGfCmAfCmUfGmCfGmCfGmCfUmAfUmCfCmCfAdT; antisense dTfGmGfGmAfUmAfGmCfGmCfGmCfAmGfUmGfCmUdT*dT; siRNA) [compound 2362] | 0.673 ± 0.089 | 0.454 ± 0.069 |
| 2363 (sense fUmAfUmUfGmCfUmGfCmCfAmAfGmAfGmGfGmUfAdT; antisense dTfAmCfCmCfUmCfUmUfGmGfCmAfGmCfAmAfUmAdT*dT; siRNA) [compound 2363] | 0.653 ± 0.199 | 0.452 ± 0.091 |
| 2364 (sense fGmGfUmCfUmGfAmUfGmGfCmAfCmGfUmUfGmUfAdT; antisense dTfAmCfAmAfCmGfUmGfCmCfAmUfCmAfGmAfCmCdT*dT; siRNA) [compound 2364] | 1.070 ± 0.042 | 0.855 ± 0.282 |
